Experimental data taken from ChEMBL document CHEMBL1157002, “SAR of a series of inhaled A(2A) agonists and comparison of inhaled pharmacokinetics in a preclinical model with clinical pharmacokinetic data” (Bioorg Med Chem Lett, 2009).
One block for each compound: values may come before it. Activity calls are given as the source filed them. The calls are words filed in the database; no cut-off is given here.

Legend:
[1] = test system: Cavia porcellus; test: Inhibition of capsaicin-induced bronchoconstriction in it dosed guinea pig up to 5 hrs; type: functional, organism-based
[2] = test system: Cavia porcellus; test: Toxicity in it dosed guinea pig assessed as decrease of diastolic blood pressure; type: organism-based, Artery; conditions: in vivo, inhaled_or_intranasal
[3] = molecular target: Adenosine receptor A2a (Homo sapiens, UniProt P29274)
Description: Agonist activity at adenosine A2A receptor in fMLP-stimulated human neutrophils assessed as inhibition of superoxide production by colorimetric analysis

[4] = Intrinsic clearance in human liver microsomes; type: ADME, Microsome
[5] = Lipophilicity, log D at pH 7.4; type: physicochemical; conditions: buffer
[6] = test system: Rattus norvegicus; test: Dose normalized fCmax in rat (dose normalized to 1 mg/kg); type: ADME, organism-based; parameters: dose 1 mg/kg; conditions: in vivo
[7] = test system: Rattus norvegicus; test: Unbound clearance in rat at 1 mg/kg, iv; type: ADME, organism-based; parameters: dose 1 mg/kg, route intravenous; conditions: in vivo
[8] = Half life in human at 100 to 1600 ug administered by aerosol device; type: ADME, organism-based; conditions: in vivo, inhaled or intranasal
[9] = test system: Homo sapiens; test: Dose normalized fCmax in human at 1600 ug administered by aerosol device measured up to 4 hrs (dose normalized to 1 mg/kg); type: ADME, organism-based; parameters: dose 1 mg/kg; conditions: in vivo
[10] = species: Cavia porcellus; test: Inhibition of capsaicin-induced bronchoconstriction in guinea pig at 10 ug up to 8 hrs; type: functional, organism-based
[11] = test system: Homo sapiens; test: Dose normalized fCmax in human at 400 ug administered by aerosol device measured up to 4 hrs (dose normalized to 1 mg/kg); type: ADME, organism-based; parameters: dose 1 mg/kg; conditions: in vivo
[12] = test system: Homo sapiens; test: Toxicity in human assessed as increase of sitting blood pressure at 200 to 1600 ug administered by aerosol device; type: organism-based; conditions: in vivo, inhaled_or_intranasal
[13] = test system: Homo sapiens; test: Dose normalized fCmax in human at 200 ug administered by aerosol device measured up to 4 hrs (dose normalized to 1 mg/kg); type: ADME, organism-based; parameters: dose 1 mg/kg; conditions: in vivo
[14] = test system: Homo sapiens; test: Dose normalized fCmax in human at 800 ug administered by aerosol device measured up to 4 hrs (dose normalized to 1 mg/kg); type: ADME, organism-based; parameters: dose 1 mg/kg; conditions: in vivo
[15] = test system: Homo sapiens; test: Dose normalized fCmax in human at 100 ug administered by aerosol device measured up to 4 hrs (dose normalized to 1 mg/kg); type: ADME, organism-based; parameters: dose 1 mg/kg; conditions: in vivo

Adenosine receptor A2a, sequence (P29274 whole entry): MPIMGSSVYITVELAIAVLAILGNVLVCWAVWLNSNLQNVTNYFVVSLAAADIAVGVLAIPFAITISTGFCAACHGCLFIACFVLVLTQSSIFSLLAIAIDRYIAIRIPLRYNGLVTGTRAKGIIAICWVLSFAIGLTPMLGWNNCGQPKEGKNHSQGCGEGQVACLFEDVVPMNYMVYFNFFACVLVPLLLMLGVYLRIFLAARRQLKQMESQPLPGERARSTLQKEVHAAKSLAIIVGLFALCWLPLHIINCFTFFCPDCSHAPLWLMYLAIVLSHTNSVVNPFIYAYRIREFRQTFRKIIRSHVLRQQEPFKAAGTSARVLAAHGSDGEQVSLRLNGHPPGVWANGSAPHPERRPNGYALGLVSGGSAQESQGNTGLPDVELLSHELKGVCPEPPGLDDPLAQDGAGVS

Compound: CCNC(=O)[C@H]1O[C@@H](n2cnc3c(NCC(c4ccccc4)c4ccccc4)nc(CNC(=O)NCCN4CCCCC4)nc32)[C@H](O)[C@@H]1O
- Activity [1]: Active
- Activity [2]: Non-toxic

Compound: CCNC(=O)[C@H]1O[C@@H](n2cnc3c(NCC(c4ccccc4)c4ccccc4)nc(C(=O)NCCNC(=O)NCCc4ccccc4)nc32)[C@H](O)[C@@H]1O
- IC50 [3]: 10 nM

Compound: CCNC(=O)[C@H]1O[C@@H](n2cnc3c(NCC(c4ccccc4)c4ccccc4)nc(C(=O)NCCNC(=O)NCc4ccc(C(=O)O)cc4)nc32)[C@H](O)[C@@H]1O
- IC50 [3]: 0.4 nM

Compound: CCNC(=O)[C@H]1O[C@@H](n2cnc3c(NCC(c4ccccc4)c4ccccc4)nc(CNC(=O)NCCN(C(C)C)C4CCCC4)nc32)[C@H](O)[C@@H]1O
- logD [5]: 2
- Cmax_unbound [6]: 1.8 nM
- CL free [7]: 210 L/h/kg

Compound: CCNC(=O)[C@H]1O[C@@H](n2cnc3c(NCC(c4ccccc4)c4ccccc4)nc(C(=O)NCCNC(=O)NCCN4CCc5ccccc5C4)nc32)[C@H](O)[C@@H]1O
- IC50 [3]: 10 nM

Compound: CCNC(=O)[C@H]1O[C@@H](n2cnc3c(NCC(c4ccccc4)c4ccccc4)nc(C(=O)NCCNC(=O)NC4CCN(c5ccccn5)CC4)nc32)[C@H](O)[C@@H]1O [UK432097]
- half-life [8]: 3 h
- Cmax_unbound [9]: 0.12 nM
- Activity [10]: Active
- microsomal CLint [4]: > 255 µL/min/mg
- Cmax_unbound [11]: 0.19 nM
- Activity [12]: Toxic
- Cmax_unbound [6]: 0.2 nM
- CL free [7]: 330 L/h/kg
- Cmax_unbound [13]: 0.3 nM
- Cmax_unbound [14]: 0.19 nM
- Cmax_unbound [15]: 0.45 nM

Compound: CCNC(=O)[C@H]1O[C@@H](n2cnc3c(NCC(c4ccccc4)c4ccccc4)nc(C(=O)NCCNC(=O)NCCN4CCCCC4)nc32)[C@H](O)[C@@H]1O
- IC50 [3]: 5 nM

Compound: O=C(NCCNC(=O)c1nc(NCC(c2ccccc2)c2ccccc2)c2ncn([C@@H]3O[C@H](CO)[C@@H](O)[C@H]3O)c2n1)NCCN1CCCCC1
- IC50 [3]: 45 nM

Compound: CCNC(=O)[C@H]1O[C@@H](n2cnc3c(NCC(c4ccccc4)c4ccccc4)nc(C(=O)NCCNC(=O)NCc4ccc(CN(CC)CC)cc4)nc32)[C@H](O)[C@@H]1O
- IC50 [3]: 5 nM

Compound: CCNC(=O)[C@H]1O[C@@H](n2cnc3c(NCC(c4ccccc4)c4ccccc4)nc(C(=O)NCCN(C)C(=O)NCCN4CCCCC4)nc32)[C@H](O)[C@@H]1O
- IC50 [3]: 305 nM

The remaining compounds from weak to strong by IC50 [3], led by results:

- IC50 [3]: 7 nM
Compound: CCNC(=O)[C@H]1O[C@@H](n2cnc3c(NCC(c4ccccc4)c4ccccc4)nc(C(=O)NCCNC(=O)NCCN(C(C)C)C4CCCC4)nc32)[C@H](O)[C@@H]1O

- IC50 [3]: 6 nM
Compound: CCNC(=O)[C@H]1O[C@@H](n2cnc3c(NCC(c4ccccc4)c4ccccc4)nc(C(=O)NCCNC(=O)NCc4ccccc4)nc32)[C@H](O)[C@@H]1O

- IC50 [3]: 5 nM
- microsomal CLint [4]: 81 µL/min/mg
- logD [5]: 0.9
- Cmax_unbound [6]: 12.3 nM
- CL free [7]: 45 L/h/kg
Compound: CCNC(=O)[C@H]1O[C@@H](n2cnc3c(NCC(c4ccccc4)c4ccccc4)nc(C(=O)NCCNC(=O)NCCN(C(C)C)C(C)C)nc32)[C@H](O)[C@@H]1O

- IC50 [3]: 4 nM
Compound: CCNC(=O)[C@H]1O[C@@H](n2cnc3c(NCC(c4ccccc4)c4ccccc4)nc(C(=O)NCCNC(=O)NCc4ccccn4)nc32)[C@H](O)[C@@H]1O
